This note sets out measurements from US12152012B2, “BRAG2 inhibitors and applications thereof” (CENTRE NATIONAL DE LA RECHERCHE SCIENTIFIQUE, priority 2018, dated 2024).

The nature of series [1]: Stability in aqueous solution / PBS (mass spectroscopy). The following applies: for Chemical stability in aqueous solution: after a few days in aqueous solution; for Stability in PBS by mass spectroscopy: dissolved in PBS, within 72 hours. In kind it is physicochemical.
The next series deals with T1, BRAG2 (BRAG2^Sec7PH) (Homo sapiens, UniProt Q6DN90).
T1 construct: human BRAG2^Sec7 (390-594) and BRAG2^Sec7PH (390-811); made in house
Briefly: Nucleotide exchange kinetics on liposomes, activation of myristoylated Arf1. The format is biochemical. Here is the method:
The effect of Bragsin1 on the GEF efficiency of representative human ArfGEFs was evaluated by fluorescence kinetics using highly purified recombinant Arf GTPases and ArfGEFs. In a first series of assays, the Sec7 domains of BIG1, a Golgi ArfGEF, and of ARNO, EFA6a and BRAG2, which function at the plasma membrane, were used. When tested in solution, Bragsin1 had no effect on the activation of Arf1 by any of these Sec7 domains (FIGS. 2a and 14). Separately, we reconstituted the activation of myristoylated Arf1 by the same ArfGEFs on liposomes using ArfGEF constructs that contain a membrane-binding domain (DCB-HUS domain for BIG1, PH domains for the other GEFs). […] BRAG2 activates several Arf isoforms, including the plasma membrane-located Arf6 isoform. […] Bragsin1 and Bragsin2 have the same IC50 towards BRAG2 ([…]) according to dose-response analysis, confirming that Bragsin1 and Bragsin2 can be used interchangeably (FIG. 2d). The specific inhibition of BRAG2 by Bragsin in vitro predicts that BRAG2 silencing by siRNA should yield the same phenotype as treatment by the small molecule. Silencing of BRAG2 induced the redistribution of TGN46 into tubular or punctate structures, which phenocopied the effects induced by Bragsin (FIGS. 2e, 17 and 18). […] Silencing of ARNO, which is located at the plasma membrane, had no effect on TGN46 distribution. Overexpression of BRAG2-mCherry rescued the dispersion of the TGN46 structure induced by Bragsin, which is consistent with the silencing experiments (FIG. 2f). Bragsin is a specific inhibitor of the ArfGEF BRAG2 in vitro and in cells according to these experiments. These oexperiments identify a mechanism of inhibition that requires the membrane to manifests itself.
Bovine Δ17Arf1 and human Δ13Arf6, full-length myristoylated Arf1 and Arf6, human BRAG2^Sec7 (390-594) and BRAG2^Sec7PH (390-811), human EFA6^Sec7 (527-727) and EFA6^Sec7PHCt (527-1024), ARNO^Sec7 (50-256), BIG1^Sec7 (691-889), BIG1^DcbHusSec7 (2-888) and ARNO^Sec7PH (50-399) were expressed and purified as in (Benabdi, S. et al. Family-wide Analysis of the Inhibition of Arf Guanine Nucleotide Exchange Factors with Small Molecules: Evidence of Unique Inhibitory Profiles. Biochemistry 56, 5125-5133 (2017)) and references therein. BRAG2^Sec7PH mutants were purified as the wild type protein. Purification of human full-length Rac1 carrying a 6xHis tag in C-terminus and human TRIO^DH1PH1 (1232-1550) was described in (Peurois, F. et al. Characterization of the activation of small GTPases by their GEFs on membranes using artificial membrane tethering. Biochem J 474, 1259-1272 (2017)).
Lipids (of natural origin) were from Avanti Polar Lipids, except NBD-PE from Sigma. Liposomes were prepared as described in (Aizel, K. et al. Integrated conformational and lipid-sensing regulation of endosomal ArfGEF BRAG2. PLOS Biol 11, e1001652 (2013)) and extruded at 0.2 μm. For the Arf GEF specificity studies, liposomes contained 48% phosphatidylcholine (PC), 20% phosphatidylethanolamine (PE), 30% phosphatidylserine (PS) and 2% phosphatidylinositol-4,5-bisphosphate (PIP2). For Rac activation assay, liposomes contained 43% PC, 20% PE, 10% PS, 20% cholesterol, 2% PIP2, 5% NiNTA lipids and 0.2% NBD-PE. To exclude aggregation or disruption of the liposomes, their size distribution was controlled before and after experiments by dynamic light scattering as described in (Benabdi, S. et al. Biochemistry 56, 5125-5133 (2017)). Dose-response and flotation assays were carried out with liposomes containing 37.9% PC, 20% PE, 20% PS, 2% PIP2, 20% cholesterol and 0.1% NBD-PE. Flotation assays were carried out as in 18.
Nucleotide exchange kinetics were monitored by tryptophan fluorescence with excitation/emission wavelengths of 292/340 nm using a Cary Eclipse fluorimeter (Varian) at 37° C. and under continuous stirring as described in ^50,51. […]

Entries after “also recorded” stand apart in the source; their conditions may differ.

T1 sequence (Q6DN90 512-933): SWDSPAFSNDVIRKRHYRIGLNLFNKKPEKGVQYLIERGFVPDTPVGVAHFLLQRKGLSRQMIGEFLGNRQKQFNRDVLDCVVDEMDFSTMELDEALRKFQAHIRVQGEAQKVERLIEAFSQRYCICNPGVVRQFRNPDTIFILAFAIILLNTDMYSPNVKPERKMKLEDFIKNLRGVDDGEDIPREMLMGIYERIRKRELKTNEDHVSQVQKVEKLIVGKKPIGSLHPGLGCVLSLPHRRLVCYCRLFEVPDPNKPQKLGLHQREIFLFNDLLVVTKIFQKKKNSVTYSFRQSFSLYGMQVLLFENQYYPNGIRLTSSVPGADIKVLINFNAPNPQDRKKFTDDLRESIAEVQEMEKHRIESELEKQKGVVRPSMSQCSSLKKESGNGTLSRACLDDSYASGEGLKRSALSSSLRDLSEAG

For `Cc1ccc2oc(C(F)(F)F)cc(=O)c2c1[N+](=O)[O-]` [Bragsin1, 6-methyl-5-nitro-2-(trifluoromethyl)-4H-chromen-4-one], in series [1], the “Chemical stability in aqueous solution” value is given as “chemically unstable” and the “Stability in PBS by mass spectroscopy” value is on record as “slowly decomposed”. Further, at BRAG2 (BRAG2^Sec7PH) (50 μM compound vs DMSO, myristoylated Arf1, liposomes), the “Inhibition of BRAG2 in the presence of liposomes” value is listed as “strongly inhibited; also recorded: specifically inhibits”. For the same compound, on BRAG2 (BRAG2^Sec7PH) (stock solution in DMSO kept for several months), the “Activity towards BRAG2 after storage” value is given as “lost activity”.
`COc1ccc2oc(C(F)(F)F)cc(=O)c2c1[N+](=O)[O-]` [Bragsin2, 6-methoxy-5-nitro-2-(trifluoromethyl)-4H-chromen-4-one]: in series [1], the “Chemical stability in aqueous solution” value was “resistant to hydration and stable”; the “Stability in PBS by mass spectroscopy” value is given as “remained stable”. The “Inhibition of BRAG2 on liposomes that contain PIP2 compared to PS as sole negatively charged lipid” value at BRAG2 (BRAG2^Sec7PH) (lipid composition of liposomes varied) is “more efficiently; also recorded: stronger”.
